According to paper PMC12888861, “Antibacterial activity of enmetazobactam against Acinetobacter spp.: a molecular dissection of mechanism of action and resistance determinants” (Antimicrobial Agents and Chemotherapy, 2025):
In brackets after ≈: the same amount, converted by molar mass.

Columns and labels:
[1] = test system: A. baumannii ATCC 19606 cells; test: Cell morphology assay, bright-field microscopy; type: cell-based, Acinetobacter baumannii; conditions: A. baumannii ATCC 19606, overnight exposure at 1× MIC
Description: In order to confirm the involvement of PBPs as targets of enmetazobactam, cell morphology assays involving exposure to enmetazobactam and sulbactam were performed following the methodology described in Supplementary materials and methods.
To confirm the involvement of PBPs as targets of enmetazobactam, the cellular morphology of A. baumannii ATCC 19606 reference strain was analyzed after exposure to the compound at different concentrations. Bright-field microscopy was used to monitor the cell morphology. […] For microscopic visualization, aliquots of each sample were obtained, stained with crystal violet solution and observed using an Olympus BX61 microscope (Olympus).
Changes in cell morphology were determined on the basis of alterations in septal integrity, abnormal elongation, spheroplast formation and filamentation, patterns previously associated with the selective inhibition of PBP1, PBP2 and PBP3 in Gram-negative bacilli. Specifically, PBP1 inhibition has been linked to cell lysis, PBP2 inhibition has been linked to spherification, and PBP3 inhibition to defective cell division and filament formation (1, 2). The results were qualitatively compared across different treatments to infer the potential selectivity of enmetazobactam for specific PBPs.

[2] = test system: carbapenem-susceptible A. baumannii isolates (n = 54); test: MIC, broth microdilution (EUCAST), carbapenem-susceptible A. baumannii isolates; type: cell-based, Acinetobacter baumannii
How it was run: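 Clinical isolates from the Spanish National Acinetobacter spp. 2020 collection were tested by EUCAST v.15 broth microdilution, including enmetazobactam on its own. Duplicate runs used A. baumannii ATCC 19606 as reference.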

[3] = Acinetobacter baumannii, carbapenem-susceptible A. baumannii isolates (n = 54), ETZ fixed 8 mg/L in combinations

CC1(C)[C@H](C(=O)O)N2C(=O)C[C@H]2S1(=O)=O [sulbactam]
cell morphology [1]: long filaments
MIC distribution 0.12 [2]: 0
MIC distribution 0.25 [2]: 0
MIC distribution 0.5 [2]: 27.8
MIC distribution 1 [2]: 79.6
MIC distribution 2 [2]: 96.3
MIC distribution 4 [2]: 100
MIC distribution 8 [2]: 100
MIC distribution 16 [2]: 100
MIC distribution ≤0.06 [2]: 0
MIC distribution ≥32 [2]: 100
MIC ([2]; Acinetobacter baumannii, MBC set, isolate Ab1, A. baumannii ST 164, ADC-6, OXA-91, non-CHDLs-producing): 0.5 µg/mL (≈ 2.14 µM)
MIC ([2]; Acinetobacter baumannii, MBC set, isolate Ab11, A. baumannii ST 239, ADC-2, OXA-51, non-CHDLs-producing): 1 µg/mL (≈ 4.29 µM)
MIC ([2]; Acinetobacter baumannii, MBC set, isolate Ab34, A. baumannii ST 2182, ADC-2, OXA-130, non-CHDLs-producing): 0.5 µg/mL (≈ 2.14 µM)
MIC ([2]; Acinetobacter baumannii, isolate Ab1, ST 164, ADC-6, OXA-91, in combinations ETZ fixed at 8 mg/L): 1 µg/mL
MIC ([2]; Acinetobacter baumannii, isolate Ab11, ST 239, ADC-2, OXA-51, in combinations ETZ fixed at 8 mg/L): 1 µg/mL
MIC ([2]; Acinetobacter baumannii, isolate Ab34, ST 2182, ADC-2, OXA-130, in combinations ETZ fixed at 8 mg/L): 0.5 µg/mL
MIC ([2]; Acinetobacter baumannii, isolate Ab38, ST 866, ADC-2, OXA-385, in combinations ETZ fixed at 8 mg/L): 1 µg/mL
MIC ([2]; Acinetobacter baumannii, isolate Ab40, ST 2176, ADC-2, OXA-64, in combinations ETZ fixed at 8 mg/L): 1 µg/mL
MIC ([2]; Acinetobacter baumannii, isolate Ab50, ST 2176, ADC-2, OXA-64, in combinations ETZ fixed at 8 mg/L): 1 µg/mL
MIC ([2]; Acinetobacter baumannii, isolate Ab57, ST 1470, ADC-58, OXA-106, in combinations ETZ fixed at 8 mg/L): 1 µg/mL
MIC ([2]; Acinetobacter baumannii, isolate Ab58, ST 6, ADC-2, OXA-94, in combinations ETZ fixed at 8 mg/L): 2 µg/mL
MIC ([2]; Acinetobacter baumannii, isolate Ab61, ST 1639, ADC-7, OXA-64, in combinations ETZ fixed at 8 mg/L): 2 µg/mL
MIC ([2]; Acinetobacter baumannii, isolate Ab62, ST 265, ADC-2, OXA-91, in combinations ETZ fixed at 8 mg/L): 1 µg/mL
MIC ([2]; Acinetobacter baumannii, isolate Ab67, ST 1, ADC-11, OXA-69, in combinations ETZ fixed at 8 mg/L): 1 µg/mL
MIC ([2]; Acinetobacter baumannii, isolate Ab79, ST 106, ADC-11, OXA-78, in combinations ETZ fixed at 8 mg/L): 1 µg/mL
MIC ([2]; Acinetobacter baumannii, isolate Ab80, ST 2182, ADC-6, OXA-208, in combinations ETZ fixed at 8 mg/L): 4 µg/mL
MIC ([2]; Acinetobacter baumannii, isolate Ab81, ST 25, ADC-79, OXA-64, in combinations ETZ fixed at 8 mg/L): 2 µg/mL
MIC ([2]; Acinetobacter baumannii, isolate Ab93, ST 25, ADC-79, OXA-64, in combinations ETZ fixed at 8 mg/L): 1 µg/mL
MIC ([2]; Acinetobacter baumannii, isolate Ab95, ST 582, ADC-5, OXA-317, in combinations ETZ fixed at 8 mg/L): 1 µg/mL
MIC ([2]; Acinetobacter baumannii, isolate Ab96, ST 582, ADC-5, OXA-317, in combinations ETZ fixed at 8 mg/L): 1 µg/mL
MIC ([2]; Acinetobacter baumannii, isolate Ab100, ST 145, ADC-58, OXA-343, in combinations ETZ fixed at 8 mg/L): 1 µg/mL
MIC ([2]; Acinetobacter baumannii, isolate Ab110, ST 1623, ADC-3, OXA-70, in combinations ETZ fixed at 8 mg/L): 1 µg/mL
MIC ([2]; Acinetobacter baumannii, isolate Ab112, ST 193, ADC-like, OXA-120, in combinations ETZ fixed at 8 mg/L): 0.5 µg/mL
MIC ([2]; Acinetobacter baumannii, isolate Ab124, ST 2176, ADC-2, OXA-64, in combinations ETZ fixed at 8 mg/L): 1 µg/mL
MIC ([2]; Acinetobacter baumannii, isolate Ab127, ST 2176, ADC-2, OXA-64, in combinations ETZ fixed at 8 mg/L): 2 µg/mL
MIC ([2]; Acinetobacter baumannii, isolate Ab128, ST 2176, ADC-2, OXA-64, in combinations ETZ fixed at 8 mg/L): 1 µg/mL
MIC ([2]; Acinetobacter baumannii, isolate Ab130, ST 32, ADC-79, OXA-100, in combinations ETZ fixed at 8 mg/L): 2 µg/mL
MIC ([2]; Acinetobacter baumannii, isolate Ab131, ST 687, ADC-like, OXA-208, in combinations ETZ fixed at 8 mg/L): 1 µg/mL
MIC ([2]; Acinetobacter baumannii, isolate Ab132, ST 1112, ADC-79, OXA-89, in combinations ETZ fixed at 8 mg/L): 2 µg/mL
MIC ([2]; Acinetobacter baumannii, isolate Ab136, ST 2183, ADC-like, OXA-66, in combinations ETZ fixed at 8 mg/L): 1 µg/mL
MIC ([2]; Acinetobacter baumannii, isolate Ab139, ST 54, ADC-like, OXA-365, in combinations ETZ fixed at 8 mg/L): 1 µg/mL
MIC ([2]; Acinetobacter baumannii, isolate Ab142, ST 1, ADC-like, OXA-69, in combinations ETZ fixed at 8 mg/L): 4 µg/mL
MIC ([2]; Acinetobacter baumannii, isolate Ab143, ST 1328, ADC-76, OXA-408, in combinations ETZ fixed at 8 mg/L): 2 µg/mL
MIC ([2]; Acinetobacter baumannii, isolate Ab149, ST 1112, ADC-6, OXA-407, in combinations ETZ fixed at 8 mg/L): 1 µg/mL
MIC ([2]; Acinetobacter baumannii, isolate Ab150, ST 2184, ADC-like, OXA-64, in combinations ETZ fixed at 8 mg/L): 2 µg/mL
MIC ([2]; Acinetobacter baumannii, isolate Ab152, ST 132, ADC-2, OXA-120, in combinations ETZ fixed at 8 mg/L): 1 µg/mL
MIC ([2]; Acinetobacter baumannii, isolate Ab158, ST 2034, ADC-2, OXA-217, in combinations ETZ fixed at 8 mg/L): 0.5 µg/mL
MIC ([2]; Acinetobacter baumannii, isolate Ab163, ST 132, ADC-2, OXA-120, in combinations ETZ fixed at 8 mg/L): 0.5 µg/mL
MIC ([2]; Acinetobacter baumannii, isolate Ab167, ST 1623, ADC-like, OXA-345, in combinations ETZ fixed at 8 mg/L): 0.5 µg/mL
MIC ([2]; Acinetobacter baumannii, isolate Ab168, ST 1470, ADC-75, OXA-402, in combinations ETZ fixed at 8 mg/L): 0.5 µg/mL
MIC ([2]; Acinetobacter baumannii, isolate Ab170, ST 2110, ADC-4, OXA-338, in combinations ETZ fixed at 8 mg/L): 1 µg/mL
MIC ([2]; Acinetobacter baumannii, isolate Ab172, ST 2185, ADC-5, OXA-217, in combinations ETZ fixed at 8 mg/L): 2 µg/mL
MIC ([2]; Acinetobacter baumannii, isolate Ab185, ST 2, ADC-26, OXA-66, in combinations ETZ fixed at 8 mg/L): 1 µg/mL
MIC ([2]; Acinetobacter baumannii, isolate Ab187, ST 105, ADC-2, OXA-430, in combinations ETZ fixed at 8 mg/L): 1 µg/mL
MIC ([2]; Acinetobacter baumannii, isolate Ab188, ST 203, ADC-6, OXA-217, PDC-1, in combinations ETZ fixed at 8 mg/L): 1 µg/mL
MIC ([2]; Acinetobacter baumannii, isolate Ab189, ST 1405, ADC-3, OXA-120, in combinations ETZ fixed at 8 mg/L): 0.5 µg/mL
MIC ([2]; Acinetobacter baumannii, isolate Ab190, ST 2186, ADC-6, OXA-413, in combinations ETZ fixed at 8 mg/L): 0.5 µg/mL
MIC ([2]; Acinetobacter baumannii, isolate Ab193, ST 164, ADC-6, OXA-91, in combinations ETZ fixed at 8 mg/L): 0.5 µg/mL
MIC ([2]; Acinetobacter baumannii, isolate Ab195, ST 1, ADC-11, OXA-69, in combinations ETZ fixed at 8 mg/L): 1 µg/mL
MIC ([2]; Acinetobacter baumannii, isolate Ab200, ST 1336, ADC-2, OXA-51, in combinations ETZ fixed at 8 mg/L): 0.5 µg/mL
MIC ([2]; Acinetobacter baumannii, isolate Ab202, ST 1, ADC-11, OXA-69, in combinations ETZ fixed at 8 mg/L): 1 µg/mL
MIC ([2]; Acinetobacter baumannii, isolate Ab203, ST 221, ADC-6, OXA-88, in combinations ETZ fixed at 8 mg/L): 0.5 µg/mL
MIC ([2]; Acinetobacter baumannii, isolate Ab206, ST 2187, ADC-58, OXA-69, in combinations ETZ fixed at 8 mg/L): 0.5 µg/mL
MIC ([2]; Acinetobacter baumannii, isolate Ab209, in combinations ETZ fixed at 8 mg/L): 0.5 µg/mL
MIC ([2]; Acinetobacter baumannii, isolate Ab213, in combinations ETZ fixed at 8 mg/L): 0.5 µg/mL
MIC ([2]; Acinetobacter baumannii, isolate Ab218, in combinations ETZ fixed at 8 mg/L): 1 µg/mL
MIC ([2]; Acinetobacter baumannii, isolate Ab220, in combinations ETZ fixed at 8 mg/L): 0.5 µg/mL
MIC50 [2, 3]: 1 µg/mL
MIC90 [2, 3]: 2 µg/mL
